Data published in US12384786B2 (MINGHUI PHARMACEUTICAL (SHANGHAI) LIMITED, priority 2019, dated 2025).
Entries after “also recorded” stand apart in the source; their conditions may differ.

What was measured:
Full-length human BTK [1] = experiment: BTK inhibitory activity, Reaction Biology Corporation kinase assay; conditions: read-out: IC50 of standard; standard in BTK/BTK (C481S) assay, ATP 10 μM
[2] = tested on: TMD8 cells (Human diffuse large B lymphoma cells); experiment: CellTiter-Glo TMD8 inhibitory activity; type: cell-based; conditions: cultured in vitro
Text: CellTiter-Glo kit was used to test the TMD8 inhibitory activity of compounds of examples on Human diffuse large B lymphoma cells cultured in vitro. IC50 values were shown below.

Full-length human BTK [3] = molecular target: Full-length human BTK (Homo sapiens (Human), UniProt Q06187); experiment: BTK inhibitory activity, Reaction Biology Corporation kinase assay; conditions: for IC50: read-out: IC50(nM) BTK, (b) ATP concentration 100 μM; for inhibition at 0.005 µM: read-out: BTK inhibitory rate(%)
Sequence of Full-length human BTK (Homo sapiens (Human), UniProt Q06187) (Q06187 whole entry): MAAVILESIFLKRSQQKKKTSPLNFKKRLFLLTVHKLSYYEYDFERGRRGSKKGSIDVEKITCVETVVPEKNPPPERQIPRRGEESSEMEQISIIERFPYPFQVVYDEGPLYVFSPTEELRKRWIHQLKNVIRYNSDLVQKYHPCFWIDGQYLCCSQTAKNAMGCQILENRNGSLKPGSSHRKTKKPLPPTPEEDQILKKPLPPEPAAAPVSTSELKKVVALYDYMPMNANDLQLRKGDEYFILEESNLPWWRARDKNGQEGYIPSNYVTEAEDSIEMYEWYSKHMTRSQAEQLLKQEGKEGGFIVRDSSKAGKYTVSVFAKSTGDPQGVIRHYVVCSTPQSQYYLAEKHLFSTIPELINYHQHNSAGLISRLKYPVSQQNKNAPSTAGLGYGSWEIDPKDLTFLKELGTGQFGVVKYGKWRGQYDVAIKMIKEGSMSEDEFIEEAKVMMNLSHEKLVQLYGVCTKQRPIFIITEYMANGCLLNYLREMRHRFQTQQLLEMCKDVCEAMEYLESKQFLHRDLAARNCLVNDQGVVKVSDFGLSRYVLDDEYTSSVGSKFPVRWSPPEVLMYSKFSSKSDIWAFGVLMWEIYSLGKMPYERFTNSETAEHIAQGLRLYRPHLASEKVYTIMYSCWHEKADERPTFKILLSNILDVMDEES

[4] = molecular target: Full-length human BTK (C481S) (Homo sapiens (Human), UniProt Q06187, C481S); experiment: BTK (C481S) inhibitory activity, Reaction Biology Corporation kinase assay; conditions: for IC50: read-out: IC50(nM) BTK(C481S), (b) ATP concentration 100 μM; for inhibition at 0.005 µM: read-out: BTK(C481S) inhibitory rate(%)
Sequence of Full-length human BTK (C481S) (Q06187 whole entry C481S): as the sequence (Q06187 whole entry) above, with C481S counted along it

[5] = tested on: subcutaneous xenograft TMD8 tumor; experiment: Subcutaneous transplantation tumor model of TMD8 cells in NOD/SCID mice; type: in vivo; conditions: for inhibitory effect on growth of subcutaneous transplanted TMD8 tumor / anti-tumor effect: orally 30 mg/kg once a day or 10→5 mg/kg twice a day; for tumor growth inhibition rate (TGI): after 22 days of administration
Protocol: In the subcutaneous transplantation tumor model of human diffuse large B lymphoma TMD8 cells in NOD/SCID mice, the inhibitory effect of example 1 on tumor growth was tested. Tumor growth and animal body weight were presented in FIG. 1 and FIG. 2 as followed. […] Therefore, the dose was adjusted to 5 mg/kg and continued to administrate for 14 days.

SMILES	IC50 [2] [nM]	IC50 (Full-length human BTK [3]) [nM]	IC50 [4] [nM]	inhibition at 0.005 µM (Full-length human BTK [3]) [%]	inhibition at 0.005 µM [4] [%]	also measured
CN[C@@H]1C[C@H]2O[C@@](C)([C@@H]1OC)n1c3ccccc3c3c4c(c5c6ccccc6n2c5c31)C(=O)NC4 [Starsporin, reference compound]						IC50 (Full-length human BTK [1]): 3.94 nM
Nc1ncnc2c1c(-c1ccc(Oc3ccccc3)cc1)nn2C1CCC(O)(C2CC2)CC1 (stereo not drawn) [Example 10, 4-(4-amino-3-(4-phenoxyphenyl)-1H-pyrazolo[3,4-d]pyrimidin-1-yl]-1-cyclopropylcyclohexane-1-ol]	145			63	72	

Now from value to molecule, other results behind:

IC50 [2] [nM]	IC50 (Full-length human BTK [3]) [nM]	IC50 [4] [nM]	inhibition at 0.005 µM (Full-length human BTK [3]) [%]	inhibition at 0.005 µM [4] [%]	SMILES	also measured
8.6	5	0.9			COc1cccc(Oc2ccc(-c3nn([C@H]4CC[C@@H](O)CC4)c4ncnc(N)c34)cc2)c1F [Example 20, (1s,4s)-4-(4-amino-3-(4-(2-fluoro-3-methoxyphenoxy)phenyl)-1H-pyrazolo[3,4-d]pyrimidin-1-yl)cyclohex-1-ol]	
20	8.1	3.4	60		Nc1ncnc2c1c(-c1ccc(Oc3ccccc3)cc1)nn2[C@@H]1CCC[C@@H](O)C1 [Example 1, (1R,3R)-3-(4-amino-3-(4-phenoxyphenyl)-1h-pyrazole[3,4-d]pyrimidin-1-yl)cyclohex-1-ol]	animal body weight ([5]; 10 mg/kg orally twice a day for 8 successive days): decreased slightly; effect on animal body weight ([5]; 30 mg/kg orally once a day): no significant effect; influence on the body weight of animals ([5]; during administration, treatment groups overall): without showing obvious influence; inhibitory effect on growth of subcutaneous transplanted TMD8 tumor / anti-tumor effect [5]: obvious inhibitory effect; inhibitory effect on growth of subcutaneous transplanted TMD8 tumor / anti-tumor effect ([5]; listed as example 1): significant anti-tumor effect; also recorded: significantly inhibited the growth of tumor; tumor growth inhibition rate (TGI) ([5]; orally once a day at 30 mg/kg): 49.6%; tumor growth inhibition rate (TGI) ([5]; orally twice a day at 10→5 mg/kg): 52.7%
90			82	66	Nc1ncnc2c1c(-c1ccc(Oc3ccccc3)cc1)nn2[C@H]1CC[C@@H](O)CC1 [Example 8A, (1s, 4S)-4-(4-amino-3-(4-phenoxyphenyl)-1H-pyrazolo[3,4-d]pyrimidin-1-yl) cyclohexane-1-ol]	
